Converted amounts (≈) assume the structure as drawn. The source made the active and inactive calls. The rule behind the calls is not given here.
Assays:
Format in all cases: functional
[1] = system: Chromobacterium violaceum; assay: Antibacterial activity against Chromobacterium violaceum MTCC 2656 assessed as inhibition zones at 100 ug/disk at 37 degC for 24 hr; details: MTCC 2656, 24 h, read-out: IZ
Pseudomonas aeruginosa [2] = assay: Antibacterial activity against Pseudomonas aeruginosa MTCC 741 assessed as growth arrest at 37 degC for 24 hr; details: MTCC 741, 24 h
Bacillus subtilis [3] = assay: Antibacterial activity against Bacillus subtilis MTCC 441 assessed as growth arrest at 37 degC for 24 hr; details: MTCC 441, 24 h
Klebsiella aerogenes [4] = assay: Antibacterial activity against Enterobacter aerogenes MTCC 39 assessed as growth arrest at 37 degC for 24 hr; details: MTCC 39, 24 h
[5] = system: Chromobacterium violaceum; assay: Antibacterial activity against Chromobacterium violaceum MTCC 2656 assessed as growth arrest at 37 degC for 24 hr; details: MTCC 2656, 24 h
Bacillus subtilis [6] = assay: Antibacterial activity against Bacillus subtilis MTCC 441 assessed as inhibition zones at 100 ug/disk at 37 degC for 24 hr; details: MTCC 441, 24 h, read-out: IZ
Klebsiella aerogenes [7] = assay: Antibacterial activity against Enterobacter aerogenes MTCC 39 assessed as inhibition zones at 100 ug/disk at 37 degC for 24 hr; details: MTCC 39, 24 h, read-out: IZ
Staphylococcus aureus [8] = assay: Antibacterial activity against Staphylococcus aureus MTCC 96 assessed as inhibition zones at 100 ug/disc at 37 degC for 24 hr; details: MTCC 96, 24 h, read-out: IZ
[9] = system: Lysinibacillus sphaericus; assay: Antibacterial activity against Lysinibacillus sphaericus MTCC 11 assessed as inhibition zones at 100 ug/disk at 37 degC for 24 hr; details: MTCC 11, 24 h, read-out: IZ
Staphylococcus aureus [10] = assay: Antibacterial activity against Staphylococcus aureus MTCC 96 assessed as growth arrest at 37 degC for 24 hr; details: MTCC 96, 24 h
Pseudomonas aeruginosa [11] = assay: Antibacterial activity against Pseudomonas aeruginosa MTCC 741 assessed as inhibition zones at 100 ug/disk at 37 degC for 24 hr; details: MTCC 741, 24 h, read-out: IZ
[12] = system: Lysinibacillus sphaericus; assay: Antibacterial activity against Lysinibacillus sphaericus MTCC 11 assessed as growth arrest at 37 degC for 24 hr; details: MTCC 11, 24 h
Klebsiella aerogenes [13] = assay: Antibacterial activity against Enterobacter aerogenes MTCC 39 assessed as inhibition zones at 300 ug/disk at 37 degC for 24 hr; details: MTCC 39, 24 h, read-out: IZ
Pseudomonas aeruginosa [14] = assay: Antibacterial activity against Pseudomonas aeruginosa MTCC 741 assessed as inhibition zones at 300 ug/disk at 37 degC for 24 hr; details: MTCC 741, 24 h, read-out: IZ
[15] = system: Lysinibacillus sphaericus; assay: Antibacterial activity against Lysinibacillus sphaericus MTCC 11 assessed as inhibition zones at 300 ug/disk at 37 degC for 24 hr; details: MTCC 11, 24 h, read-out: IZ
Aspergillus fumigatus [16] = assay: Antifungal activity against Aspergillus fumigatus HIC 6094 assessed as growth inhibition at 37 degC for 48 hr; details: HIC 6094, 48 h
Caenorhabditis elegans = assay: Nematicidal activity against Caenorhabditis elegans assessed as immobility; details: read-out: LD50 (the source's name)
Trichophyton rubrum [17] = assay: Antifungal activity against Trichophyton rubrum IFO 9185 assessed as growth inhibition at 300 ug/disk at 37 degC for 48 hr; details: IFO 9185, 48 h, read-out: IZ
Trichophyton rubrum [18] = assay: Antifungal activity against Trichophyton rubrum IFO 9185 assessed as growth inhibition at 37 degC for 48 hr; details: IFO 9185, 48 h
Candida albicans [19] = assay: Antifungal activity against Candida albicans ATCC 10231 assessed as growth inhibition at 300 ug/disk at 37 degC for 48 hr; details: ATCC 10231, 48 h, read-out: IZ
[20] = system: Chromobacterium violaceum; assay: Antibacterial activity against Chromobacterium violaceum MTCC 2656 assessed as inhibition zones at 300 ug/disk at 37 degC for 24 hr; details: MTCC 2656, 24 h, read-out: IZ
[21] = system: Trichophyton mentagrophytes; assay: Antifungal activity against Trichophyton mentagrophytes IFO 40996 assessed as growth inhibition at 300 ug/disc at 37 degC for 48 hr; details: IFO 40996, 48 h, read-out: IZ
Staphylococcus aureus [22] = assay: Antibacterial activity against Staphylococcus aureus MTCC 96 assessed as inhibition zones at 300 ug/disc at 37 degC for 24 hr; details: MTCC 96, 24 h, read-out: IZ
[23] = system: Trichophyton mentagrophytes; assay: Antifungal activity against Trichophyton mentagrophytes IFO 40996 assessed as growth inhibition at 37 degC for 48 hr
Bacillus subtilis [24] = assay: Antibacterial activity against Bacillus subtilis MTCC 441 assessed as inhibition zones at 300 ug/disk at 37 degC for 24 hr; details: MTCC 441, 24 h, read-out: IZ
[25] = system: Ditylenchus myceliophagus; assay: Nematicidal activity against Ditylenchus myceliophagus assessed as immobility; details: read-out: LD50 (the source's name)
Candida albicans [26] = assay: Antifungal activity against Candida albicans ATCC 10231 assessed as growth inhibition at 37 degC for 48 hr; details: ATCC 10231, 48 h
Aspergillus fumigatus [27] = assay: Antifungal activity against Aspergillus fumigatus HIC 6094 assessed as growth inhibition at 300 ug/disc at 37 degC for 48 hr; details: HIC 6094, 48 h, read-out: IZ

| Structure (SMILES) | MBC (Pseudomonas aeruginosa [2]) | MIC (Pseudomonas aeruginosa [2]) | MBC (Bacillus subtilis [3]) | MIC (Bacillus subtilis [3]) | MBC (Klebsiella aerogenes [4]) | MIC (Klebsiella aerogenes [4]) | MBC [5] | MIC [5] | MBC (Staphylococcus aureus [10]) | MIC (Staphylococcus aureus [10]) | MBC [12] | MIC [12] | zone of inhibition at 300 µg/disc (Klebsiella aerogenes [13]) | zone of inhibition at 300 µg/disc (Pseudomonas aeruginosa [14]) | zone of inhibition at 300 µg/disc [15] | MBC (Aspergillus fumigatus [16]) | MIC (Aspergillus fumigatus [16]) | LC50 (Caenorhabditis elegans) | zone of inhibition at 300 µg/disc (Trichophyton rubrum [17]) | MBC (Trichophyton rubrum [18]) | other results |
| --- | --- | --- | --- | --- | --- | --- | --- | --- | --- | --- | --- | --- | --- | --- | --- | --- | --- | --- | --- | --- | --- |
| CC1(C)S[C@@H]2[C@H](NC(=O)Cc3ccccc3)C(=O)N2[C@H]1C(=O)O [PENICILLIN G] | 12.5 µg/mL (≈ 37.4 µM) | 6.25 µg/mL (≈ 18.7 µM) | 6.25 µg/mL (≈ 18.7 µM) | 1.56 µg/mL (≈ 4.67 µM) | 12.5 µg/mL (≈ 37.4 µM) | 6.25 µg/mL (≈ 18.7 µM) | 12.5 µg/mL (≈ 37.4 µM) | 12.5 µg/mL (≈ 37.4 µM) | 6.25 µg/mL (≈ 18.7 µM) | 1.56 µg/mL (≈ 4.67 µM) | 25 µg/mL (≈ 74.8 µM) | 3.12 µg/mL (≈ 9.33 µM) |  |  |  |  |  |  |  |  | zone of inhibition at 100 µg/disc [1]: 25 mm; zone of inhibition at 100 µg/disc (Bacillus subtilis [6]): 25 mm; zone of inhibition at 100 µg/disc (Klebsiella aerogenes [7]): 30 mm; zone of inhibition at 100 µg/disc (Staphylococcus aureus [8]): 40 mm; zone of inhibition at 100 µg/disc [9]: 28 mm; zone of inhibition at 100 µg/disc (Pseudomonas aeruginosa [11]): 25 mm |
| COc1ccc(Cc2ccc(OC)c(C3SC4C(=NN(Cc5ccccc5)C4c4ccc(F)cc4)N3c3ccc(C)cc3)c2)cc1C1SC2C(=NN(Cc3ccccc3)C2c2ccc(F)cc2)N1c1ccc(C)cc1 (configuration not stated) | 25 µg/mL (≈ 24.2 µM) | 12.5 µg/mL (≈ 12.1 µM) | 12.5 µg/mL (≈ 12.1 µM) | 6.25 µg/mL (≈ 6.06 µM) | 50 µg/mL (≈ 48.5 µM) | 12.5 µg/mL (≈ 12.1 µM) | 12.5 µg/mL (≈ 12.1 µM) | 12.5 µg/mL (≈ 12.1 µM) | 6.25 µg/mL (≈ 6.06 µM) | 6.25 µg/mL (≈ 6.06 µM) | 12.5 µg/mL (≈ 12.1 µM) | 6.25 µg/mL (≈ 6.06 µM) | 22 mm | 14 mm | 14 mm | 25 µg/mL (≈ 24.2 µM) | 25 µg/mL (≈ 24.2 µM) | 210 µg/mL (≈ 204 µM) | 15 mm | 25 µg/mL (≈ 24.2 µM) | MIC (Trichophyton rubrum [18]): 12.5 µg/mL (≈ 12.1 µM); zone of inhibition at 300 µg/disc (Candida albicans [19]): 22 mm; zone of inhibition at 300 µg/disc [20]: 17 mm; zone of inhibition at 300 µg/disc [21]: 16 mm; zone of inhibition at 300 µg/disc (Staphylococcus aureus [22]): 24 mm; MBC ([23]; IFO 40996, 48 h): 25 µg/mL (≈ 24.2 µM); MIC ([23]; IFO 40996, 48 h): 25 µg/mL (≈ 24.2 µM); zone of inhibition at 300 µg/disc (Bacillus subtilis [24]): 20 mm; LC50 [25]: 190 µg/mL (≈ 184 µM); MBC (Candida albicans [26]): 6.25 µg/mL (≈ 6.06 µM); MIC (Candida albicans [26]): 3.12 µg/mL (≈ 3.03 µM); zone of inhibition at 300 µg/disc (Aspergillus fumigatus [27]): 16 mm |
| COc1ccc(Cc2ccc(OC)c(C3SC4C(=NN(C)C4c4ccc(F)cc4)N3c3ccc(Cl)cc3)c2)cc1C1SC2C(=NN(C)C2c2ccc(F)cc2)N1c1ccc(Cl)cc1 (configuration not stated) | 25 µg/mL (≈ 27.2 µM) | 12.5 µg/mL (≈ 13.6 µM) | 50 µg/mL (≈ 54.4 µM) | 12.5 µg/mL (≈ 13.6 µM) | 25 µg/mL (≈ 27.2 µM) | 12.5 µg/mL (≈ 13.6 µM) | 50 µg/mL (≈ 54.4 µM) | 12.5 µg/mL (≈ 13.6 µM) | 12.5 µg/mL (≈ 13.6 µM) | 12.5 µg/mL (≈ 13.6 µM) | 25 µg/mL (≈ 27.2 µM) | 12.5 µg/mL (≈ 13.6 µM) | 21 mm | 21 mm | 20 mm | 50 µg/mL (≈ 54.4 µM) | 6.25 µg/mL (≈ 6.79 µM) | 210 µg/mL (≈ 228 µM) | 13 mm | 25 µg/mL (≈ 27.2 µM) | MIC (Trichophyton rubrum [18]): 6.25 µg/mL (≈ 6.79 µM); zone of inhibition at 300 µg/disc (Candida albicans [19]): 18 mm; zone of inhibition at 300 µg/disc [20]: 19 mm; zone of inhibition at 300 µg/disc [21]: 16 mm; zone of inhibition at 300 µg/disc (Staphylococcus aureus [22]): 20 mm; MBC [23]: inactive; MIC [23]: inactive; zone of inhibition at 300 µg/disc (Bacillus subtilis [24]): 21 mm; LC50 [25]: 190 µg/mL (≈ 207 µM); MBC (Candida albicans [26]): 25 µg/mL (≈ 27.2 µM); MIC (Candida albicans [26]): 12.5 µg/mL (≈ 13.6 µM); zone of inhibition at 300 µg/disc (Aspergillus fumigatus [27]): 15 mm |
